ChEMBL document CHEMBL1146842, “Design, synthesis, and biological evaluations of novel quinolones as HIV-1 non-nucleoside reverse transcriptase inhibitors” (Bioorg Med Chem Lett, 2006)

Tests used:
[1] = system: Human immunodeficiency virus 1; experiment: Antiviral activity against HIV1; format: functional, organism-based
HEK293 = experiment: Cytotoxicity against HEK293T cells; format: functional; details: Homo sapiens
[2] = system: Human immunodeficiency virus 1; experiment: Antiviral activity against HIV1 E138K mutant; format: functional, organism-based
[3] = system: Human immunodeficiency virus 1; experiment: Antiviral activity against HIV1 F227L mutant; format: functional, organism-based
[4] = system: Human immunodeficiency virus 1; experiment: Antiviral activity against HIV1 I135V mutant; format: functional, organism-based
[5] = system: Human immunodeficiency virus 1; experiment: Antiviral activity against HIV1 K103N mutant; format: functional, organism-based
[6] = system: Human immunodeficiency virus 1; experiment: Antiviral activity against HIV1 L100I mutant; format: functional, organism-based
[7] = system: Human immunodeficiency virus 1; experiment: Antiviral activity against HIV1 V106A mutant; format: functional, organism-based
[8] = system: Human immunodeficiency virus 1; experiment: Antiviral activity against HIV1 Y181C mutant; format: functional, organism-based
[9] = system: Human immunodeficiency virus 1; experiment: Antiviral activity against HIV1 Y188L mutant; format: functional, organism-based
[10] = system: Human immunodeficiency virus 1; experiment: Antiviral activity against HIV1 V179E mutant; format: functional, organism-based
[11] = system: Human immunodeficiency virus 1; experiment: Antiviral activity against HIV1 Y181H mutant; format: functional, organism-based
[12] = system: Human immunodeficiency virus 1; experiment: Antiviral activity against HIV1 Y181S mutant; format: functional, organism-based

CCCCC12CC1(C(=O)NCC)C(=O)Nc1ccc(Cl)cc12 (centres undefined)
EC50 [1]: 747 nM | CC50 (HEK293): > 10000 nM

CCCCC(=O)C12CC1(CCCC)c1cc(Cl)ccc1NC2=O (centres undefined)
EC50 [1]: 6300 nM | CC50 (HEK293): > 10000 nM

CCCCC12CC1(C(=O)N(C)CC)C(=O)Nc1ccc(Cl)cc12 (centres undefined)
EC50 [1]: > 10000 nM | CC50 (HEK293): > 10000 nM

CCOC(=O)C12CC1(CCc1ccccc1)c1cc(Cl)ccc1NC2=O (centres undefined)
EC50 [1]: 221 nM | CC50 (HEK293): > 10000 nM

CCCCC12CC1(C(=O)OCC=C(C)C)C(=O)Nc1ccc(Cl)cc12 (centres undefined)
EC50 [1]: 2360 nM | CC50 (HEK293): > 10000 nM

CCCCC12CC1(C#N)C(=O)Nc1ccc(Cl)cc12 (centres undefined)
EC50 [1]: 197 nM | CC50 (HEK293): > 10000 nM

C=CCOCC12CC1(CCCC)c1cc(Cl)ccc1NC2=O (centres undefined)
EC50 [1]: 240 nM | CC50 (HEK293): > 10000 nM

CCCCC12CC1(COCC)C(=O)Nc1ccc(Cl)cc12 (centres undefined)
EC50 [1]: 65 nM | CC50 (HEK293): > 10000 nM | EC50 [2]: 94 nM | EC50 [3]: 251 nM | EC50 [4]: 74 nM | EC50 [5]: 3960 nM | EC50 [6]: 39 nM | EC50 [7]: 1120 nM | EC50 [8]: 6240 nM | EC50 [9]: > 10000 nM | EC50 [10]: 1030 nM | EC50 [11]: 216 nM | EC50 [12]: 4180 nM

CCCCC12CC1(C(=O)Oc1ccccc1)C(=O)Nc1ccc(Cl)cc12 (centres undefined)
EC50 [1]: > 10000 nM | CC50 (HEK293): > 10000 nM

CCCCC12CC1(C(=O)Nc1ccccn1)C(=O)Nc1ccc(Cl)cc12 (centres undefined)
EC50 [1]: 2700 nM | CC50 (HEK293): > 10000 nM

CCOC(=O)C12CC1(c1ccc(-c3ccccc3)cc1)c1cc(Cl)ccc1NC2=O (centres undefined)
EC50 [1]: > 10000 nM | CC50 (HEK293): > 10000 nM

CCCCC12CC1(C(=O)CC1CC1)C(=O)Nc1ccc(Cl)cc12 (centres undefined)
EC50 [1]: 5690 nM | CC50 (HEK293): > 10000 nM

CCCCc1c(C(=O)OCC)c(O)nc2ccc(Cl)cc12
EC50 [1]: 166 nM | CC50 (HEK293): > 10000 nM

CCCCCCC12CC1(C(=O)OCC)C(=O)Nc1ccc(Cl)cc12 (centres undefined)
EC50 [1]: 25 nM | CC50 (HEK293): > 10000 nM | EC50 [2]: 98 nM | EC50 [3]: 41 nM | EC50 [4]: 66 nM | EC50 [5]: 3080 nM | EC50 [6]: 53 nM | EC50 [7]: 878 nM | EC50 [8]: 2250 nM | EC50 [9]: > 10000 nM | EC50 [10]: 1600 nM | EC50 [11]: 61 nM | EC50 [12]: 929 nM

CCCCC12CC1(C(=O)OCCC#N)C(=O)Nc1ccc(Cl)cc12 (centres undefined)
EC50 [1]: 113 nM | CC50 (HEK293): > 10000 nM

CCCC12CC1(C(=O)OCC)C(=O)Nc1ccc(Cl)cc12 (centres undefined)
EC50 [1]: 45 nM | CC50 (HEK293): > 10000 nM | EC50 [2]: 132 nM | EC50 [3]: 26 nM | EC50 [4]: 97 nM | EC50 [5]: > 10000 nM | EC50 [6]: 41 nM | EC50 [7]: 1010 nM | EC50 [8]: > 10000 nM | EC50 [9]: > 10000 nM | EC50 [10]: 1890 nM | EC50 [11]: 210 nM | EC50 [12]: 1210 nM

C=CCNC(=O)C12CC1(CCCC)c1cc(Cl)ccc1NC2=O (centres undefined)
EC50 [1]: 489 nM | CC50 (HEK293): > 10000 nM

CCCCC12CC1(C(=O)Nc1ccncc1)C(=O)Nc1ccc(Cl)cc12 (centres undefined)
EC50 [1]: 8260 nM | CC50 (HEK293): > 10000 nM

Cc1ccnc2c1NC(=O)c1cccnc1N2C1CC1 [NEVIRAPINE]
CC50 (HEK293): > 10000 nM | EC50 [2]: 31 nM | EC50 [3]: 148 nM | EC50 [4]: 79 nM | EC50 [7]: 8460 nM | EC50 [8]: > 10000 nM | EC50 [9]: > 10000 nM | EC50 [10]: 116 nM | EC50 [11]: 112 nM | EC50 [12]: 3000 nM

CCCCC12CC1(C(=O)CCC)C(=O)Nc1ccc(Cl)cc12 (centres undefined)
EC50 [1]: 265 nM | CC50 (HEK293): > 10000 nM

CCCCC12CC1(C(=O)Nc1cccc(C#N)c1)C(=O)Nc1ccc(Cl)cc12 (centres undefined)
EC50 [1]: 160 nM | CC50 (HEK293): > 10000 nM

CCCCC12CC1(C(=O)OC)C(=O)Nc1ccc(Cl)cc12 (centres undefined)
EC50 [1]: 1 nM | CC50 (HEK293): > 10000 nM | EC50 [2]: 8 nM | EC50 [3]: > 10000 nM | EC50 [4]: 12 nM | EC50 [5]: 682 nM | EC50 [6]: 4 nM | EC50 [7]: 57 nM | EC50 [8]: 727 nM | EC50 [9]: 7340 nM | EC50 [10]: 244 nM | EC50 [11]: 8 nM | EC50 [12]: 581 nM

CCCCC12CC1(C(N)=O)C(=O)Nc1ccc(Cl)cc12 (centres undefined)
EC50 [1]: 12 nM | CC50 (HEK293): > 10000 nM | EC50 [2]: 46 nM | EC50 [3]: 1 nM | EC50 [4]: 15 nM | EC50 [5]: 3830 nM | EC50 [6]: 13 nM | EC50 [7]: 2180 nM | EC50 [8]: 7960 nM | EC50 [9]: > 10000 nM | EC50 [10]: 439 nM | EC50 [11]: 63 nM | EC50 [12]: 2520 nM

CCCCC12CC1(COC(C)=O)C(=O)Nc1ccc(Cl)cc12 (centres undefined)
EC50 [1]: 37 nM | CC50 (HEK293): > 10000 nM | EC50 [2]: 54 nM | EC50 [3]: 1 nM | EC50 [4]: 64 nM | EC50 [5]: 2620 nM | EC50 [6]: 45 nM | EC50 [7]: 4720 nM | EC50 [8]: 7460 nM | EC50 [9]: > 10000 nM | EC50 [10]: 735 nM | EC50 [11]: 59 nM | EC50 [12]: 2350 nM

CCOC(=O)C12CC1(C(C)C)c1cc(Cl)ccc1NC2=O (centres undefined)
EC50 [1]: > 10000 nM | CC50 (HEK293): > 10000 nM
